Data: US20090162413A1 (priority 1998, published 2009)
Read-outs that look alike come from different tables or passages of the source.

Columns and labels:
[1] = release of zotarolimus from PC polymer coated 316L stainless steel coupons (Example 4); assay type: physicochemical
Text: The purpose of this example is to determine the rate of release of the zotarolimus drug from 316L Electropolished Stainless Steel Coupons coated with a biocompatible polymer containing phosphorylcholine side groups.
Rubber septa from lids from HPLC vials were removed from the vials and placed into glass vials so that the “Teflon” side faced up. These septa served as supports for the test samples. The test samples were 316L stainless steel coupons that had been previously coated with a biocompatible polymer containing phosphorylcholine side groups (PC polymer). Coronary stents are commonly made of 316L stainless steel and can be coated with the PC polymer to provide a depot site for loading drugs. The coated coupons, which serve to simulate stents, were placed onto the septa. By using a glass Hamilton Syringe, a solution of zotarolimus and ethanol (10 μl) was applied to the surface of each coupon. The solution contained zotarolimus (30.6 mg) dissolved in 100% ethanol (3.0 ml). The syringe was cleaned with ethanol between each application. The cap to the glass vial was placed on the vial loosely, thereby assuring proper ventilation. The coupon was allowed to dry for a minimum of 1.5 hours. Twelve (12) coupons were loaded in this way—six being used to determine the average amount of drug loaded onto the device and six being used to measure the time needed to release the drug from the devices.
To determine the total amount of zotarolimus loaded onto a coupon, a coupon was removed from the vial and placed into 50/50 acetonitrile/0.01M phosphate buffer (pH 6.0, 5.0 ml). The coupon was placed onto a 5210 Branson sonicator for one hour. The coupon was then removed from the solution, and the solution was assayed by HPLC.
The time release studies were performed by immersing and removing the individual coupons from fresh aliquots (10.0 ml) of 0.01 M phosphate buffer at a pH of 6.0 at each of the following time intervals −5, 15, 30 and 60 minutes. For the remaining time points of 120, 180, 240, 300, 360 minutes, volumes of 5.0 ml of buffer were used. To facilitate mixing during the drug release phase, the samples were placed onto an Eberbach shaker set at low speed. All solution aliquots were assayed by HPLC after the testing of the last sample was completed.
The HPLC analysis was performed with a Hewlett Packard series 1100 instrument having the following settings: […]

[2] = Phase 1 single escalating intravenous dose safety and pharmacokinetics (Example 6); assay type: in vivo, human; conditions: for β: elimination rate constant; for tolerability: single IV doses of 100 to 900 μg
Experimental: In the present, first-time-in-man study, the safety and pharmacokinetics of zotarolimus were investigated following intravenous bolus administration of zotarolimus over a 100 to 900 μg dose range. The intravenous bolus dose administration would mimic the most rapid unexpected release of zotarolimus from drug-coated stents in vivo.
This was a Phase 1, single escalating dose, double-blind, randomized, placebo-controlled, single-center study. Sixty (60) adult healthy males were divided into 5 IV dose groups of 100, 300, 500, 700, and 900 μg.
Subjects were randomly assigned to receive a single intravenous dose of zotarolimus or a matching intravenous placebo under fasting conditions, as shown in the dosing scheme shown in Table 9.
Higher doses were administered after evaluating the safety data from the preceding lower dose groups. The treatment groups were separated by at least 7 days. For safety reasons, each treatment group was divided into two cohorts of six subjects and the doses of the two cohorts of a group were separated by at least 1 day.
Doses were administered as IV bolus over 3 minutes, with 8 subjects. Four subjects received zotarolimus and 4 subjects received placebo in each dose group. Blood concentrations of zotarolimus were sampled for 168 hours and measured using LC-MS/MS with a LOQ of 0.20 ng/mL
Seven (7)-mL blood samples were collected by venipuncture into evacuated collection tubes containing edetic acid (EDTA) prior to dosing (0 hour) and at 0.083 (5 min), 0.25, 0.5, 1, 2, 4, 8, 12, 16, 24, 36, 48, 72, 96, 120, 144, and 168 hours after dosing on Study Day 1.
Blood concentrations of zotarolimus were determined using a validated liquid/liquid extraction HPLC tandem mass spectrometric method (LC-MS/MS) (Ji et al., 2004). The lower limit of quantification of zotarolimus was 0.20 ng/mL using 0.3 mL blood sample. All calibration curves had coefficient of determination (r^2) values greater than or equal to 0.9923.
Safety was evaluated based on adverse event, physical examination, vital signs, ECG, injection site and laboratory tests assessments.
Pharmacokinetic parameter values of zotarolimus were estimated using noncompartmental methods.
To investigate the questions of dose proportionality and linear pharmacokinetics, an analysis of covariance (ANCOVA) was performed. Subjects were classified by dose level, and body weight was a covariate. The variables analyzed included β, Vdβ, dose-normalized C5, and logarithms of dose-normalized AUC0-last and dose-normalized AUC0-inf. The primary test of the hypothesis of invariance with dose was a test on dose-level effects with good power for a monotonic function of dose. In addition, the highest and lowest dose levels were compared within the framework of the ANCOVA

[3] = single IV bolus 100 μg, mean ± SD
[4] = single IV bolus 300 μg, mean ± SD
[5] = single IV bolus 500 μg, mean ± SD
[6] = single IV bolus 700 μg, mean ± SD
[7] = single IV bolus 900 μg, mean ± SD

CO[C@H]1C[C@@H]2CC[C@@H](C)[C@@](O)(O2)C(=O)C(=O)N2CCCC[C@H]2C(=O)O[C@H]([C@H](C)C[C@@H]2CC[C@H](n3cnnn3)[C@H](OC)C2)CC(=O)[C@H](C)/C=C(\C)[C@@H](O)[C@@H](OC)C(=O)[C@H](C)C[C@H](C)/C=C/C=C/C=C/1C [zotarolimus]
Percent Release ([1]; 0.01 M phosphate buffer pH 6.0, 0.00 min): 0.00
Percent Release ([1]; 0.01 M phosphate buffer pH 6.0, 5.00 min): 1.87
Percent Release ([1]; 0.01 M phosphate buffer pH 6.0, 15.00 min): 2.97
Percent Release ([1]; 0.01 M phosphate buffer pH 6.0, 30.00 min): 3.24
Percent Release ([1]; 0.01 M phosphate buffer pH 6.0, 60.00 min): 3.29
Percent Release ([1]; 0.01 M phosphate buffer pH 6.0, 180.00 min): 4.36
Percent Release ([1]; 0.01 M phosphate buffer pH 6.0, 240.00 min): 4.37
Percent Release ([1]; 0.01 M phosphate buffer pH 6.0, 300.00 min): 6.34
Percent Release ([1]; 0.01 M phosphate buffer pH 6.0, 360.00 min): 7.88
dose proportionality of pharmacokinetics ([2]; IV, 100-900 μg dose range, with respect to C5 and AUC0-inf): dose-proportional
clearance ([2]; male, human, whole blood, range of means over single IV doses 100-900 μg, read-out: mean clearance): 48.3 to 59.2 mL/min
Vd ([2]; male, human, whole blood, range of means over single IV doses 100-900 μg, read-out: mean volume of distribution): 113 to 202 L
half-life ([2]; male, human, whole blood, range of means over the studied single IV doses 100-900 μg, read-out: mean half-life): 26 to 40.2 h
half-life ([2]; male, human, whole blood, single IV bolus 100 μg, harmonic mean ± pseudo-standard deviation, read-out: t1/2 (converted)): 26 ± 6 h
AUC(0-t) ([2]; male, human, whole blood, single IV bolus 100 μg, mean ± SD): 24.6 ± 5.89 ng·h/mL
AUC(0-inf) ([2]; male, human, whole blood, single IV bolus 100 μg, mean ± SD, read-out: AUC0-inf): 35.3 ± 6.15 ng·h/mL
clearance ([2]; male, human, whole blood, single IV bolus 100 μg, mean ± SD, read-out: CL (converted)): 48.3 mL/min
half-life ([2]; male, human, whole blood, single IV bolus 300 μg, harmonic mean ± pseudo-standard deviation, read-out: t1/2 (converted)): 35.9 ± 4.6 h
AUC(0-t) ([2]; male, human, whole blood, single IV bolus 300 μg, mean ± SD): 77.8 ± 13.7 ng·h/mL
AUC(0-inf) ([2]; male, human, whole blood, single IV bolus 300 μg, mean ± SD, read-out: AUC0-inf): 91.2 ± 14.7 ng·h/mL
clearance ([2]; male, human, whole blood, single IV bolus 300 μg, mean ± SD, read-out: CL (converted)): 56 mL/min
half-life ([2]; male, human, whole blood, single IV bolus 500 μg, harmonic mean ± pseudo-standard deviation, read-out: t1/2 (converted)): 40.2 ± 7.8 h
concentration at 5 min ([2]; male, human, whole blood, single IV bolus 500 μg, healthy males, blood, concentration at 5 minutes, mean ± SD (N = 7), read-out: C5): 56.5 ± 27.5 ng/mL
AUC(0-t) ([2]; male, human, whole blood, single IV bolus 500 μg, mean ± SD): 146 ± 32.4 ng·h/mL
AUC(0-inf) ([2]; male, human, whole blood, single IV bolus 500 μg, mean ± SD, read-out: AUC0-inf): 162 ± 29.6 ng·h/mL
clearance ([2]; male, human, whole blood, single IV bolus 500 μg, mean ± SD, read-out: CL (converted)): 52.8 mL/min
AUC(0-t) ([2]; male, human, whole blood, single IV bolus 700 μg, mean ± SD): 208 ± 19.4 ng·h/mL
AUC(0-inf) ([2]; male, human, whole blood, single IV bolus 700 μg, mean ± SD, read-out: AUC0-inf): 222 ± 19.6 ng·h/mL
AUC(0-t) ([2]; male, human, whole blood, single IV bolus 900 μg, mean ± SD): 241 ± 19.2 ng·h/mL
AUC(0-inf) ([2]; male, human, whole blood, single IV bolus 900 μg, mean ± SD, read-out: AUC0-inf): 254 ± 17.6 ng·h/mL
clearance ([2]; male, human, whole blood, single IV bolus 900 μg, mean ± SD, read-out: CL (converted)): 59.2 mL/min
β [2, 3]: 0.027 ± 0.006 h⁻¹
AUC0-inf/Dose [2, 3]: 0.35 ± 0.06 ng·h/mL/µg
AUC0-last/Dose [2, 3]: 0.25 ± 0.06 ng·h/mL/µg
C5/Dose [2, 3]: 0.13 ± 0.03 ng/mL/µg
Vdβ [2, 3]: 113 ± 23 L
β [2, 4]: 0.019 ± 0.002 h⁻¹
AUC0-inf/Dose [2, 4]: 0.30 ± 0.05 ng·h/mL/µg
AUC0-last/Dose [2, 4]: 0.26 ± 0.05 ng·h/mL/µg
C5/Dose [2, 4]: 0.12 ± 0.03 ng/mL/µg
Vdβ [2, 4]: 175 ± 23 L
β [2, 5]: 0.017 ± 0.003 h⁻¹
C5 ([2]; single IV bolus 500 μg, healthy males, blood, concentration at 5 minutes, mean ± SD (N = 7)): 56.50 ± 27.54 ng/mL
AUC0-inf/Dose [2, 5]: 0.32 ± 0.06 ng·h/mL/µg
AUC0-last/Dose [2, 5]: 0.29 ± 0.06 ng·h/mL/µg
AUC(0-inf) [2, 5]: 162.44 ± 9.58 ng·h/mL
C5/Dose [2, 5]: 0.11 ± 0.05 ng/mL/µg
Vdβ [2, 5]: 190 ± 49 L
β [2, 6]: 0.020 ± 0.001 h⁻¹
t1/2 ([2]; single IV bolus 700 μg, harmonic mean ± pseudo-standard deviation): 35.0 ± 2.4 h
AUC0-inf/Dose [2, 6]: 0.32 ± 0.03 ng·h/mL/µg
AUC0-last/Dose [2, 6]: 0.30 ± 0.03 ng·h/mL/µg
C5/Dose [2, 6]: 0.13 ± 0.01 ng/mL/µg
CL [2, 6]: 3.18 ± 0.28 L/h
Vdβ [2, 6]: 161 ± 15 L
β [2, 7]: 0.018 ± 0.002 h⁻¹
t1/2 ([2]; single IV bolus 900 μg, harmonic mean ± pseudo-standard deviation): 39.0 ± 3.9 h
AUC0-inf/Dose [2, 7]: 0.28 ± 0.02 ng·h/mL/µg
AUC0-last/Dose [2, 7]: 0.27 ± 0.02 ng·h/mL/µg
C5/Dose [2, 7]: 0.12 ± 0.02 ng/mL/µg
Vdβ [2, 7]: 202 ± 29 L
serious adverse events ([2]; single IV doses 100-900 μg): no serious adverse events
tolerability ([2]; healthy males): without safety concerns
tolerability ([2]; healthy males, listed as Zotarolimus): generally well tolerated
most common treatment-emergent adverse events ([2]; single IV doses, reported by two or more subjects in any one treatment group): injection site reaction and pain
